HELM strings list units from the 5' end as sugar, base in round brackets, then linkage (d deoxyribose, r ribose, m 2'-O-methyl, p phosphodiester). Strings are as the collection lists them; they lack the last nucleoside at the 3' end of the tested compound. [moe] = 2'-O-(2-methoxyethyl) (MOE); [sp] = phosphorothioate linkage; [m5C] = 5-methylcytosine

This is an account of results in the OligoGym collection.

In this data set the target is UBE3A-ATS. Briefly: mouse, dose not given. The note with it: ASO.

Turning to “RNA1{[moe](G)[sp].[moe](T)p.[moe](G)p.[moe]([m5C])p.[moe](A)p.[moe](T)[sp].d(A)[sp].d([m5C])[sp].d([m5C])[sp].d([m5C])[sp].d(A)[sp].d(G)[sp].d(G)[sp].d(G)[sp].[moe](T)p.[moe](A)[sp].[moe](G)}$$$$ (last 3' nucleoside missing)”, the 3 h FOB score worked out at 4 score 0-7.
To “RNA1{[moe](A)[sp].[moe](T)p.[moe](T)p.[moe](G)p.[moe](G)p.[moe](T)p.d([m5C])[sp].d(A)[sp].d(T)[sp].d([m5C])[sp].d(T)[sp].d([m5C])[sp].d(G)[sp].d(G)[sp].d(G)[sp].d(T)[sp].[moe](A)p.[moe](T)[sp].[moe](A)}$$$$ (last 3' nucleoside missing)” belongs 4 score 0-7.
The substance “RNA1{[moe](G)[sp].[moe]([m5C])p.[moe](A)p.[moe](G)p.[moe]([m5C])p.d(T)[sp].d([m5C])[sp].d(T)[sp].d(T)[sp].d(T)[sp].d(G)[sp].d(T)[sp].d(A)[sp].d(G)[sp].d(G)[sp].[moe]([m5C])p.[moe]([m5C])p.[moe]([m5C])[sp].[moe](A)}$$$$ (last 3' nucleoside missing)” came in with a 3 h FOB score of 3.3 score 0-7.
To “RNA1{[moe](G)[sp].[moe](A)p.[moe](G)p.[moe]([m5C])p.[moe](T)p.d(A)[sp].d(T)[sp].d([m5C])[sp].d(T)[sp].d(G)[sp].d(T)[sp].d(A)[sp].d([m5C])[sp].d(A)[sp].d(A)[sp].[moe](A)p.[moe](A)p.[moe](T)[sp].[moe](G)}$$$$ (last 3' nucleoside missing)” belongs 6.7 score 0-7; to “RNA1{[moe]([m5C])[sp].[moe](T)p.[moe](G)p.[moe]([m5C])p.[moe](T)p.d([m5C])[sp].d(A)[sp].d(G)[sp].d(T)[sp].d(T)[sp].d(A)[sp].d(G)[sp].d(G)[sp].d(T)[sp].d(T)[sp].[moe](A)p.[moe](G)p.[moe](T)[sp].[moe](G)}$$$$ (last 3' nucleoside missing)”, 3.3 score 0-7.
To “RNA1{[moe](G)[sp].[moe](A)p.[moe](G)p.[moe]([m5C])[sp].d(T)[sp].d(A)[sp].d(T)[sp].d([m5C])[sp].d(T)[sp].d(G)[sp].d(T)[sp].d(A)[sp].[moe]([m5C])p.[moe](A)p.[moe](A)p.[moe](A)[sp].[moe](A)}$$$$ (last 3' nucleoside missing)” belongs 3.3 score 0-7.
To “RNA1{[moe]([m5C])[sp].[moe](T)p.[moe](T)p.[moe]([m5C])p.[moe](A)p.d(T)[sp].d(T)[sp].d(A)[sp].d(T)[sp].d(T)[sp].d([m5C])[sp].d(T)[sp].d([m5C])[sp].d(T)[sp].d(A)[sp].[moe](G)p.[moe](T)p.[moe](G)[sp].[moe]([m5C])}$$$$ (last 3' nucleoside missing)” belongs 0 score 0-7; to “RNA1{[moe]([m5C])[sp].[moe](A)p.[moe](G)p.[moe](T)p.[moe](T)p.d(G)[sp].d(T)[sp].d(G)[sp].d(T)[sp].d(A)[sp].d(T)[sp].d(T)[sp].d(G)[sp].d(A)[sp].d([m5C])[sp].[moe](T)p.[moe](A)p.[moe](A)[sp].[moe](G)}$$$$ (last 3' nucleoside missing)”, 4.8 score 0-7.
For the substance “RNA1{[moe](T)[sp].[moe](A)p.[moe](G)p.[moe](G)p.[moe](T)p.d([m5C])[sp].d(A)[sp].d(A)[sp].d([m5C])[sp].d([m5C])[sp].d(A)[sp].d(A)[sp].d(T)[sp].d(T)[sp].d(T)[sp].[moe](G)p.[moe]([m5C])p.[moe](T)[sp].[moe](A)}$$$$ (last 3' nucleoside missing)”, the 3 h FOB score worked out at 0 score 0-7.
To “RNA1{[moe]([m5C])[sp].[moe](A)p.[moe](G)p.[moe](T)p.[moe](A)p.d(T)[sp].d([m5C])[sp].d(T)[sp].d(T)[sp].d(A)[sp].d(A)[sp].d([m5C])[sp].d(T)[sp].d(G)[sp].d(G)[sp].[moe](T)p.[moe](G)p.[moe](A)[sp].[moe](A)}$$$$ (last 3' nucleoside missing)” belongs 1 score 0-7; to “RNA1{[moe](G)[sp].[moe]([m5C])p.[moe](T)p.[moe]([m5C])p.[moe](A)p.[moe](G)p.d(T)[sp].d(T)[sp].d(A)[sp].d(G)[sp].d(G)[sp].d(T)[sp].d(T)[sp].d(A)[sp].d(G)[sp].d(T)[sp].[moe](G)p.[moe]([m5C])[sp].[moe](A)}$$$$ (last 3' nucleoside missing)”, 4 score 0-7.
In the case of “RNA1{[moe](G)[sp].[moe](G)p.[moe](A)p.[moe](T)p.[moe](T)p.d(T)[sp].d(T)[sp].d(A)[sp].d(T)[sp].d(T)[sp].d(G)[sp].d(G)[sp].d(T)[sp].d([m5C])[sp].d(A)[sp].[moe](T)p.[moe]([m5C])p.[moe](T)[sp].[moe]([m5C])}$$$$ (last 3' nucleoside missing)”, the 3 h FOB score was found to be 5 score 0-7.
For “RNA1{[moe](G)[sp].[moe](T)p.[moe](G)p.[moe](T)p.[moe](T)p.d(T)[sp].d(A)[sp].d(T)[sp].d([m5C])[sp].d([m5C])[sp].d(A)[sp].d(A)[sp].d(A)[sp].d([m5C])[sp].d([m5C])[sp].[moe](A)p.[moe](A)p.[moe](G)[sp].[moe](G)}$$$$ (last 3' nucleoside missing)”, the 3 h FOB score was determined as 3 score 0-7.
To “RNA1{[moe]([m5C])[sp].[moe]([m5C])p.[moe](T)p.[moe](A)p.[moe](T)p.d(A)[sp].d(G)[sp].d(G)[sp].d(T)[sp].d(G)[sp].d(G)[sp].d([m5C])[sp].d([m5C])[sp].d(T)[sp].d(T)[sp].[moe]([m5C])p.[moe](A)p.[moe](G)[sp].[moe](T)}$$$$ (last 3' nucleoside missing)” belongs 5 score 0-7.
For “RNA1{[moe](A)[sp].[moe](G)p.[moe](A)p.[moe](T)p.[moe](A)p.d([m5C])[sp].d(T)[sp].d([m5C])[sp].d(A)[sp].d([m5C])[sp].d(T)[sp].d([m5C])[sp].d(G)[sp].d([m5C])[sp].d(T)[sp].[moe](T)p.[moe](T)p.[moe](T)[sp].[moe]([m5C])}$$$$ (last 3' nucleoside missing)”, the 3 h FOB score turned out to be 3.2 score 0-7.
The substance “RNA1{[moe](G)[sp].[moe](A)p.[moe](T)p.[moe]([m5C])p.[moe](A)p.d(T)[sp].d(G)[sp].d(T)[sp].d(G)[sp].d([m5C])[sp].d(A)[sp].d(T)[sp].d(A)[sp].d([m5C])[sp].d([m5C])[sp].[moe]([m5C])p.[moe](A)p.[moe](G)[sp].[moe](G)}$$$$ (last 3' nucleoside missing)” showed a 3 h FOB score of 5.7 score 0-7.
The substance “RNA1{[moe](G)[sp].[moe]([m5C])[sp].[moe]([m5C])[sp].[moe](T)[sp].[moe](A)[sp].d(A)[sp].d(T)[sp].d(A)[sp].d(T)[sp].d(G)[sp].d(T)[sp].d(G)[sp].d(T)[sp].d([m5C])[sp].d(A)[sp].[moe](T)[sp].[moe]([m5C])[sp].[moe]([m5C])[sp].[moe](T)}$$$$ (last 3' nucleoside missing)” gave a 3 h FOB score of 6.8 score 0-7.
For “RNA1{[moe](A)[sp].[moe](T)p.[moe](T)p.[moe]([m5C])p.[moe](A)p.d(G)[sp].d([m5C])[sp].d(A)[sp].d([m5C])[sp].d(T)[sp].d(T)[sp].d(A)[sp].d(G)[sp].d(G)[sp].d(T)[sp].[moe](A)p.[moe](G)p.[moe](T)[sp].[moe](T)}$$$$ (last 3' nucleoside missing)”, the 3 h FOB score turned out to be 3.3 score 0-7.
To “RNA1{[moe](G)[sp].[moe](T)p.[moe](A)p.[moe]([m5C])p.[moe](A)p.d([m5C])[sp].d(T)[sp].d(A)[sp].d(T)[sp].d(T)[sp].d(G)[sp].d(T)[sp].d(T)[sp].d(T)[sp].d(T)[sp].[moe](G)p.[moe](A)p.[moe](T)[sp].[moe](A)}$$$$ (last 3' nucleoside missing)” belongs 2.5 score 0-7.
To “RNA1{[moe](G)[sp].[moe]([m5C])p.[moe](A)p.[moe](A)p.[moe](T)p.d(G)[sp].d(G)[sp].d(A)[sp].d([m5C])[sp].d(T)[sp].d(T)[sp].d(A)[sp].d(G)[sp].d(T)[sp].d(A)[sp].[moe]([m5C])p.[moe](A)p.[moe]([m5C])[sp].[moe](A)}$$$$ (last 3' nucleoside missing)” belongs 1 score 0-7; to “RNA1{[moe](T)[sp].[moe](G)p.[moe]([m5C])p.[moe](A)p.[moe](T)p.d(G)[sp].d(T)[sp].d(G)[sp].d(G)[sp].d(G)[sp].d([m5C])[sp].d([m5C])[sp].d(T)[sp].d([m5C])[sp].d(T)[sp].[moe](A)p.[moe](T)p.[moe](T)[sp].[moe](A)}$$$$ (last 3' nucleoside missing)”, 4 score 0-7.
As to “RNA1{[moe]([m5C])[sp].[moe]([m5C])p.[moe](A)p.[moe](G)p.[moe](G)p.d(T)[sp].d(G)[sp].d(T)[sp].d([m5C])[sp].d(T)[sp].d(T)[sp].d(A)[sp].d(T)[sp].d(A)[sp].d(T)[sp].[moe]([m5C])p.[moe](T)p.[moe](A)[sp].[moe](T)}$$$$ (last 3' nucleoside missing)”, the 3 h FOB score is 1 score 0-7.
To “RNA1{[moe](T)[sp].[moe](G)p.[moe](G)p.[moe](T)p.[moe]([m5C])p.d(A)[sp].d(T)[sp].d([m5C])[sp].d(T)[sp].d([m5C])[sp].d(G)[sp].d(G)[sp].d(G)[sp].d(T)[sp].d(A)[sp].[moe](T)p.[moe](A)p.[moe](T)[sp].[moe](A)}$$$$ (last 3' nucleoside missing)” belongs 5.2 score 0-7; to “RNA1{[moe](T)[sp].[moe](T)p.[moe](T)p.[moe](G)p.[moe]([m5C])p.d(T)[sp].d(T)[sp].d(T)[sp].d(T)[sp].d([m5C])[sp].d(A)[sp].d(G)[sp].d(T)[sp].d([m5C])[sp].d(A)[sp].[moe](G)p.[moe](G)p.[moe](T)[sp].[moe](A)}$$$$ (last 3' nucleoside missing)”, 1 score 0-7; to “RNA1{[moe](G)[sp].[moe]([m5C])p.[moe](T)p.[moe](G)p.d(A)[sp].d(T)[sp].d([m5C])[sp].d(A)[sp].d([m5C])[sp].d(A)[sp].d(T)[sp].d(T)[sp].d(A)[sp].d([m5C])[sp].[moe]([m5C])p.[moe]([m5C])p.[moe](A)p.[moe](T)[sp].[moe]([m5C])}$$$$ (last 3' nucleoside missing)”, 0 score 0-7.
